Entries after “also recorded” stand apart in the source; their conditions may differ. Read-outs that look alike come from different tables or passages of the source.
How the values were obtained:
A549 cells = experiment: A549 Cell Proliferation Assay (MTT); type: cell-based
Experimental: Cell proliferation is determined using the MTT assay. The MTT cell proliferation assay is a colorimetric assay system which measures the reduction of a tetrazolium component (MTT) into an insoluble formazan product by the mitochondria of viable cells. After incubation of the cells with the MTT reagent, DMSO is added to solubilize the colored crystals and the samples read at a wavelength of 560 nm. The amount of color produced is directly proportional to the number of viable cells. […] L11939) was prepared at 5 mg/ml in PBS. […] Plates were read on the PolarStar plate reader at 560 nm. […] IC50 values were calculated in GraphPad Prism using non-linear regression curve fitting. All statistical analyses was done either in GraphPad Prism or Microsoft Excel. […] Briefly, compounds are added to cells plated in 96-well plates. The cells are allowed to grow for 72 hours before MTT treatment. The effect of the compounds on cell proliferation is analyzed using GraphPad Prism. A549 cells are a non-small cell lung cancer cell line that have wild type EGFR and p53 but have point mutations in KRAS gene which transform it into an oncogene. […] SH30071.03, lot no. ATB31500), 1% Pen Strep (Gibco, cat no. […] On day 2, working solutions of compounds at 200× were prepared. […] Plates were incubated for 72 hours before analyzing them with MTT (as described above).

H1975 cells = experiment: H1975 Cell Proliferation Assay (MTT); type: cell-based; conditions: read-out: IC50 Value (μM) H1975 Cells
Experimental: (§1) Cell proliferation is determined using the MTT assay. The MTT cell proliferation assay is a colorimetric assay system which measures the reduction of a tetrazolium component (MTT) into an insoluble formazan product by the mitochondria of viable cells. After incubation of the cells with the MTT reagent, DMSO is added to solubilize the colored crystals and the samples read at a wavelength of 560 nm. The amount of color produced is directly proportional to the number of viable cells.
(§2) 3-(4,5-Dimethylthiazol-2-yl)-2,5-diphenyltetrazolium Bromide (MTT) dye (Aesar, cat no. L11939) was prepared at 5 mg/ml in PBS. To each well, 20 μl of MTT solution was added to existing media and mixed thoroughly with 5 mins of gentle shaking at room temperature. Plates were incubated at 37° C., 5% CO2 for approximately 2 hrs. After 2-3 hrs incubation, media was aspirated out and plates were patted dry. […] Plates were incubated at 37° C., 5% CO2 for 10 min and mix thoroughly with 5 mins of gentle shaking at room temperature. Plates were read on the PolarStar plate reader at 560 nm. Percent (%) inhibition was calculated as 100%−(OD560 nm experimental-blank)×100%/OD560 nm control-blank. Blank=wells+serum free media+0.5% DMSO. Experimental=wells+cells+treatment+0.5% DMSO. Control=wells+cells+0.5% DMSO. IC50 values were calculated in GraphPad Prism using non-linear regression curve fitting. All statistical analyses was done either in GraphPad Prism or Microsoft Excel.
Briefly, compounds are added to cells plated in 96-well plates. The cells are allowed to grow for 72 hours before MTT treatment. The effect of the compounds on cell proliferation is analyzed using GraphPad Prism.

HT-29 cells = experiment: HT-29 Cell Proliferation Assay (MTT); type: cell-based; conditions: read-out: IC50 Value (μM) HT-29 Cells
Experimental: as §1, §2
Briefly, compounds are added to cells plated in 96-well plates. […] The effect of the compounds on cell proliferation is analyzed using GraphPad Prism.
HT-29 cells are a colon cancer cell line that is utilized to assess the ability of compounds to inhibit the proliferation of cells in tumors of the colon.
For the HT-29 cell proliferation assay, on day 1, HT-29 cells are seeded at 3,000 cells/well in 100 μl media containing 10% FBS, 1× Pen-Strep, and 1× L-Glutamine in 96 well, tissue culture-treated plates. […] Working solutions of compounds were prepared (at […] in 100% DMSO). To 200 μl media, 20 μl of a 5× compound (diluted in plain media) was added for a final DMSO concentration of 0.5%. […] On day 5, plates were analyzed for cell growth using the MTT assay.

[1] = Stability on incubation with mouse liver microsomes (MLM); type: in vitro ADME; conditions: for MLM % Remaining@ 30 Min: percentage left after incubation with mouse liver microsomes for 30 minutes; for stability toward liver microsome incubation: mouse and human liver microsomes (MLM, HLM)
How it was run: (§3)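 Values are percent compound remaining after 30 min incubation with mouse or human liver microsomes.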

[2] = Stability on incubation with human liver microsomes (HLM); type: in vitro ADME; conditions: percentage left after incubation with human liver microsomes for 30 minutes
How it was run: as §3

[3] = Homo sapiens, A549, 72 h, read-out: IC50 Value (μM) A549 Cells
[4] = Homo sapiens, A549, read-out: IC50, cell proliferation in A549 or H1975 cells
[5] = Homo sapiens, NCI-H1975, MTT, 72 hours

SMILES | IC50 (A549 cells; [3]) [µM] | IC50 (H1975 cells; Homo sapiens, NCI-H1975, 72 h) [µM] | IC50 (HT-29 cells; Homo sapiens, HT-29, 72 h) [µM] | MLM % Remaining@ 30 Min [1] [%] | HLM % Remaining@ 30 Min [2] [%] | other results
Oc1c(C(Nc2cc(Cl)c(Cl)cn2)c2cccc(Cl)c2Cl)ccc2cccnc12 (stereo not drawn) [AD4-13172] | 0.14 | 0.15 | 1.3 | 80 | 100 | 
Cc1cc(Cl)cnc1NC(c1ccc(C(F)(F)F)cc1)c1ccc2cccnc2c1O (stereo not drawn) [AD4-13041] | 0.11 | 0.17 | 1.1 | 81 | 100 | stability toward liver microsome incubation [1]: increased stability
Oc1c(C(Nc2ccc(F)cn2)c2cc(Cl)cc(Cl)c2Cl)ccc2cccnc12 (stereo not drawn) [AD4-13132] |  |  |  | 66 | 98 | IC50 (A549 cells; read-out: IC50 Value (μM) A549 Cells): 0.17 µM; IC50 (H1975 cells): 0.31 µM; IC50 (HT-29 cells): 1.6 µM
Cc1cc(NC(c2cccc(Cl)c2Cl)c2ccc3cccnc3c2O)ncc1Cl (stereo not drawn) [AD4-13153] | 0.19 | 0.19 | 0.79 | 62 | 96 | 
Oc1c(C(Nc2ncc(Cl)cc2F)c2ccc(Cl)cc2Cl)ccc2cccnc12 (stereo not drawn) [AD4-13143] | 0.13 | 0.13 | 1.1 | 76 | 96 | 
Oc1c(C(Nc2ccc(Cl)cn2)c2cc(Cl)ccc2Cl)ccc2cccnc12 (stereo not drawn) [AD4-13095] | 0.11 | 0.44 | 5.4 | 60 | 88 | 
Oc1c(C(Nc2cc(Cl)c(Cl)cn2)c2ccc(Cl)c(Cl)c2)ccc2cccnc12 (stereo not drawn) [AD4-13177] | 0.14 | 0.27 | 1.5 | 86 | 86 | 
Cc1cc(Cl)cnc1NC(c1cc(Cl)cc(Cl)c1)c1ccc2cccnc2c1O (stereo not drawn) [AD4-13131] | 0.1 | 0.1 | 0.92 | 83 | 100 | IC50 (A549 cells; [4]): ≤ 0.1 µM
Cc1nc(NC(c2ccc(Cl)cc2Cl)c2ccc3cccnc3c2O)c(Cl)cc1Cl (stereo not drawn) [AD4-13206] | 0.074 | 0.36 | 2.1 | 93 | 99 | IC50 (A549 cells; [4]): ≤ 0.1 µM; stability toward liver microsome incubation [1]: increased stability; also recorded: good stability
Oc1c(C(Nc2ncc(Cl)cc2F)c2ccc(Cl)c(Cl)c2)ccc2cccnc12 (stereo not drawn) [AD4-13150] | 0.14 | 0.45 | 1.9 | 85 | 100 | 
Oc1c(C(Nc2ncc(F)cc2F)c2c(Cl)cccc2Cl)ccc2cccnc12 (stereo not drawn) [AD4-13138] | 0.17 | 0.3 | 1.1 |  |  | 
Oc1c(C(Nc2ccc(Cl)cn2)c2cccc(Cl)c2Cl)ccc2cccnc12 (stereo not drawn) [AD4-13086] | 0.16 | 0.15 | 1.2 | 37 | 72 | 
Cc1nc(NC(c2cccc(Cl)c2Cl)c2ccc3cccnc3c2O)c(Cl)cc1Cl (stereo not drawn) [AD4-13211] | 0.082 | 0.16 | 2 |  |  | IC50 (A549 cells; [4]): ≤ 0.1 µM
Oc1c(C(Nc2ccc(F)cn2)c2cc(Cl)cc(Cl)c2Cl)ccc2cccnc12 (stereo not drawn) [AD4-13111] | 0.14 | 0.37 |  | 87 | 92 | IC50 (HT-29 cells): 8.9 µM
Cc1cc(Cl)cnc1NC(c1ccc(C(F)(F)F)cc1F)c1ccc2cccnc2c1O (stereo not drawn) [AD4-13042] | 0.11 | 0.13 | 1.3 | 99 | 101 | stability toward liver microsome incubation [1]: increased stability
Cc1cc(Cl)cnc1NC(c1cccc(Cl)c1)c1ccc2cccnc2c1O (stereo not drawn) [AD4-13159] | 0.11 | 0.13 | 1.2 |  |  | 
Cc1nc(NC(c2cc(Cl)cc(Cl)c2Cl)c2ccc3cccnc3c2O)ccc1Cl (stereo not drawn) [AD4-13209] | 0.17 | 0.14 | 2.3 |  |  | 
Cc1cc(Cl)cnc1NC(c1cc(Cl)cc(Cl)c1Cl)c1ccc2cccnc2c1O (stereo not drawn) [AD4-13167] | 0.1 | 0.31 | 1.5 |  |  | 
Oc1c(C(Nc2ncc(Cl)cc2F)c2cccc(C(F)(F)F)c2)ccc2cccnc12 (stereo not drawn) [AD4-13145] | 0.16 | 1.7 | 2.1 |  |  | 
Oc1c(C(Nc2cc(Cl)c(Cl)cn2)c2ccc(Cl)c(C(F)(F)F)c2)ccc2cccnc12 (stereo not drawn) [AD4-13184] | 0.11 | 0.24 | 2.2 |  |  | 
Oc1c(C(Nc2cc(Cl)c(Cl)cn2)c2cccc(Cl)c2)ccc2cccnc12 (stereo not drawn) [AD4-13188] | 0.14 | 0.28 | 0.86 |  |  | 
Cc1cc(Cl)ccc1NC(c1ccc(Cl)c(Cl)c1)c1ccc2cccnc2c1O (stereo not drawn) [AD4-13204] |  |  |  |  |  | IC50 (A549 cells; Homo sapiens, A549, MTT, 72 hours, read-out: IC50 Value (μM) A549 Cells): 0.19 µM; IC50 (H1975 cells; [5]): 1.4 µM; IC50 (HT-29 cells; Homo sapiens, HT-29, MTT, 72 hrs): 4.5 µM
Cc1cc(Cl)cnc1NC(c1ccc(Cl)cc1Cl)c1cc(Cl)c2cccnc2c1O (stereo not drawn) [AD4-13212] | 0.13 |  | 3.5 |  |  | IC50 (H1975 cells; [5]): 0.16 µM
Cc1cc(NC(c2ccc(C(F)(F)F)cc2C(F)(F)F)c2ccc3cccnc3c2O)ncc1Cl (stereo not drawn) [AD4-13124] | 0.1 | 0.97 | 1.5 |  |  | IC50 (A549 cells; [4]): ≤ 0.1 µM

Reference: US9073858B2, “Methods of targeted drug development” (priority 2010, dated 2015)
